# Patent US5523421A (Pacific Corporation, priority 1993, dated 1996)
# Columns and labels:
# tyrosinase [1] = test: Tyrosinase-inhibiting activity; type: biochemical, mushroom; conditions: for IC50: mushroom tyrosinase, tyrosine substrate, pH 6.8, 37° C., 10 minutes, absorbance at 475 nm
# Protocol: As an enzyme, the tyrosinase, which was extracted from mushroom and produced by SIGMA was purchased. Tyrosine, a substrate was dissolved into distilled water to a concentration of 0.3 mg/ml and each 1.0 ml of the solution was placed into a test tube. […] Ethanol and water were used to dilute the test compounds. As a control, 0.9 ml of 1:1 mixture of ethanol and water was used. […] The test tube was quickly cooled in an ice water bath to stop the reaction, and the absorbance was measured at 475 nm. […] From the inhibitions(%) of tyrosinase by a series of dilutions of test compounds, IC50, i.e., a concentration of test compound which inhibit the tyrosinase by 50% was calculated for each test compound.
# [2] = DPPH (diphenylpicrylhydrazyl) radical-scavenging test; conditions: 100 μM DPPH in ethanol, 37° C., 30 minutes, 515 nm
# Protocol: Harmful radicals-scavenging activity of the compounds of Examples 1 through 6 were compared with those of conventional anti-oxidants by using DPPH(diphenylpicrylhydrazyl) radical-scavenging test as follows:
# DPPH was dissolved into ethanol to a concentration of 100 μM. A series of dilutions of compounds of Examples 1 through 6, vitamin C, vitamin E or hydroquinone were prepared.
# Ethanol and water were used to dilute the test compounds. As a control, 1:1 mixture of ethanol and water was used. The series of dilutions of each test compound were mixed with 1,900 μl of DPPH solution and the dilution solvent was added to 2.0 ml. The resulting mixture was reacted in a 37° C. incubator for 30 minutes. The absorbance was measured at 515 nm. The radical-scavenging activities of the compounds of Examples 1 through 6 and conventional anti-oxidants were calculated by employing the following equation: [formula]
# From the radical scavenging activity(%) by a series of dilutions of test compounds, IC50, i.e., a concentration of test compound which scavenge the radical, DPPH by 50% was calculated for each test compound.
# human skin = test: human body patch test (skin safety); type: in vivo; conditions: for number of positive subject/the number of total subjects, 48 hours later / number of positive subject/the number of total subjects, 96 hours later: 0.2 wt % in cream, 20 μl finn chamber on brachium; for safety to human skin (in words): patch test conclusion
# Protocol: In order to examine the safety of the compounds of Examples 1 through 6, the human body patch test was carried out as follows:
# The brachium of thirty(30) healthy volunteers (15 females and 15 males) was thoroughly washed with 70% ethanol and applied with a finn chamber containing 20 μl of a conventional creamy preparation incorporating 0.2 wt % of one of the compound of Examples 1 to 6. The finn chamber was thoroughly bonded to the brachium using an adhesive tape. 48 hours later, the tape and chamber were removed, and the adherent site of the arm was wiped with a gauze to remove the remaining preparation and observed for redness(erythma), swelling, and papuol. 48 hours later, the site was examined again.
# The results are shown in terms of the number of positive subject/the number of total subjects.
# tyrosinase [3] = conditions: background, known activity; cited from earlier work
compound,measurement,setting,value
"O=C(OCc1cc(=O)c(O)co1)c1ccc(O)cc1 [Example 1, 2-(4-hydroxybenzoyl)oxymethyl-5-hydroxy-4H-pyran-4-one]",IC50,tyrosinase [1],10 µM
same,IC50,[2],1910 µM
same,"number of positive subject/the number of total subjects, 48 hours later",human skin,0/30
same,"number of positive subject/the number of total subjects, 96 hours later",human skin,0/30
same,safety to human skin (in words),human skin,safe to the human skin
"O=C(OCc1cc(=O)c(O)co1)c1ccc(O)cc1O [Example 6, 2-(2,4-dihydroxybenzoyl)oxymethyl-5-hydroxy-4H-pyran-4-one]",tyrosinase-inhibiting activity (in words),tyrosinase [1],strongest tyrosinase-inhibiting activity
same,IC50,tyrosinase [1],6 µM
same,IC50,[2],15 µM
same,"number of positive subject/the number of total subjects, 48 hours later",human skin,0/30
same,"number of positive subject/the number of total subjects, 96 hours later",human skin,0/30
same,safety to human skin (in words),human skin,safe to the human skin
"tocopherol [Vitamin E, reference compound]",IC50,[2],34.8 µM
"O=C(OCc1cc(=O)c(O)co1)c1ccccc1O [Example 2, 2-(2-hydroxybenzoyl)oxymethyl-5-hydroxy-4H-pyran-4-one]",IC50,tyrosinase [1],15 µM
same,IC50,[2],2230 µM
same,"number of positive subject/the number of total subjects, 48 hours later",human skin,2/30
same,"number of positive subject/the number of total subjects, 96 hours later",human skin,0/30
same,safety to human skin (in words),human skin,safe to the human skin
O=c1cc(CO)occ1O [Kojic acid],"tyrosinase inhibition (in words, prior art)",tyrosinase [3],strongly inhibiting the action of tyrosinase
"O=C1O[C@H]([C@@H](O)CO)C(O)=C1O [Vitamin C, reference compound]",IC50,[2],29.2 µM
"O=C(OCc1cc(=O)c(O)co1)c1ccc(O)c(O)c1 [Example 4, 2-(3,4-dihydroxybenzoyl)oxymethyl-5-hydroxy-4H-pyran-4-one]",tyrosinase-inhibiting activity (in words),tyrosinase [1],strongest tyrosinase-inhibiting activity
same,IC50,tyrosinase [1],4 µM
same,IC50,[2],11.5 µM
same,"number of positive subject/the number of total subjects, 48 hours later",human skin,1/30
same,"number of positive subject/the number of total subjects, 96 hours later",human skin,0/30
same,safety to human skin (in words),human skin,safe to the human skin
"Oc1ccc(O)cc1 [Hydroquinone, reference compound]",IC50,[2],25.4 µM
"O=C(OCc1cc(=O)c(O)co1)c1cccc(O)c1 [Example 3, 2-(3-hydroxybenzoyl)oxymethyl-5-hydroxy-4H-pyran-4-one]",IC50,tyrosinase [1],15 µM
same,IC50,[2],2030 µM
same,"number of positive subject/the number of total subjects, 48 hours later",human skin,1/30
same,"number of positive subject/the number of total subjects, 96 hours later",human skin,1/30
same,safety to human skin (in words),human skin,considered to be safe
same,skin response after 96 hours (in words),"human skin; preparation with 0.2 wt % of compound, 96 hours",only one(1) among 30 subjects show a weak positive response
"O=C(OCc1cc(=O)c(O)co1)c1cccc(O)c1O [Example 5, 2-(2,3-dihydroxybenzoyl)oxymethyl-5-hydroxy-4H-pyran-4-one]",IC50,tyrosinase [1],14 µM
same,IC50,[2],11.3 µM
same,"number of positive subject/the number of total subjects, 48 hours later",human skin,1/30
same,"number of positive subject/the number of total subjects, 96 hours later",human skin,0/30
same,safety to human skin (in words),human skin,safe to the human skin
